Patent publication US20030022158A1, “Peptides from the TT virus sequence and monospecific antibodies binding to the TT virus” (priority 1999, published 2003)

Key:
[1] = system: human antibodies in human serum samples; experiment: EIA reactivities of three human serum samples with deletion and alanine substitution analogues of SEQ ID NO: 1 (Table 6); assay type: binding; settings: positive = more than 50% of the reactivity of the original peptide
Procedure: The EIAs used to identify which peptides interacted with human sera followed protocols known in the art. (See Zhang et al., J Gen Virol, 78:2735-2746 (1997), herein expressly incorporated by reference in its entirety). Briefly, microplates (Nunc, Denmark) were coated for 48 hours with synthetic peptides at a concentration of 10 μg/ml in 0.05M sodium carbonate buffer pH 9.6. After blocking for 2 hours at room temperature with phosphate buffered saline containing 1% bovine serum albumin, 2% goat serum and 0.05% Tween 20 (dilution buffer) the plates were incubated with human sera diluted 1:100 in dilution buffer. Bound human IgG was detected by incubation with anti-human IgG antibodies conjugated to alkaline phosphatase (Sigma Chemicals, St. Louis, Mo.). The plates were developed by the addition of […] (Sigma) and the optical densities were determined at 405 nm.
The reactivity to the TATTTTYAYPGTNRPPV (SEQ ID NO: 1) peptide was further characterized by mapping the reactivity of deletion and substitution peptide analogues.

[2] = system: human IgG antibodies in human serum samples; experiment: EIA of human antibody reactivities to overlapping synthetic peptides of TTV ORF1 and ORF2 (Tables 2 and 3); assay type: binding; settings: for optical density (OD) at 405 nm: serum diluted 1:100, OD over 0.500 considered positive
Method in brief: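 Plates were coated 48 h with 18-mer peptides (8-residue overlap) at 10 μg/ml in carbonate buffer pH 9.6, then blocked 2 h at room temperature in PBS/1% BSA/2% goat serum/0.05% Tween 20. Sera were applied at 1:100, and bound IgG was detected with alkaline phosphatase anti-human IgG, read at 405 nm.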

[3] = human serum sample 1, negative for TTV DNA by PCR
[4] = human serum sample 2, negative for TTV DNA by PCR
[5] = human serum sample 3, negative for TTV DNA by PCR
[6] = human serum sample 4, negative for TTV DNA by PCR
[7] = human serum sample 5, negative for TTV DNA by PCR
[8] = human serum sample 6, negative for TTV DNA by PCR
[9] = human serum sample 7, negative for TTV DNA by PCR
[10] = human serum sample 9, positive for TTV DNA by PCR
[11] = human serum sample 11, negative for TTV DNA by PCR
[12] = human serum sample 18, positive for TTV DNA by PCR
[13] = human serum sample 36, positive for TTV DNA by PCR
[14] = human serum sample 48, positive for TTV DNA by PCR
[15] = human serum sample 98, positive for TTV DNA by PCR
[16] = human serum sample 110, positive for TTV DNA by PCR
[17] = human serum sample 155, positive for TTV DNA by PCR
[18] = human serum sample 157, positive for TTV DNA by PCR

Substance	OD at 405 nm, reactivity of human serum sample P4 [1] [OD]	OD at 405 nm, reactivity of human serum sample P7 [1] [OD]	OD at 405 nm, reactivity of human serum sample P36 [1] [OD]	optical density (OD) at 405 nm [2, 3] [OD]	optical density (OD) at 405 nm [2, 4] [OD]	optical density (OD) at 405 nm [2, 5] [OD]	optical density (OD) at 405 nm [2, 6] [OD]	optical density (OD) at 405 nm [2, 7] [OD]	optical density (OD) at 405 nm [2, 8] [OD]	optical density (OD) at 405 nm [2, 9] [OD]	optical density (OD) at 405 nm [2, 10] [OD]	optical density (OD) at 405 nm [2, 11] [OD]	optical density (OD) at 405 nm [2, 12] [OD]	optical density (OD) at 405 nm [2, 13] [OD]	optical density (OD) at 405 nm [2, 14] [OD]	optical density (OD) at 405 nm [2, 15] [OD]	optical density (OD) at 405 nm [2, 16] [OD]	optical density (OD) at 405 nm [2, 17] [OD]	optical density (OD) at 405 nm [2, 18] [OD]	further results
2: overlapping synthetic peptide of TTV ORF1 (YAYPGTNRPPV) [compound 2]	0.647	1.546	0.677	0.08	0.08	0.07	0.11	0.07	0.09	0.08	0.07	0.14	0.06	0.08	0.10	0.05	0.08	0.07	0.08	optical density (OD) at 405 nm, EIA reactivity of human serum sample 1 ([2]; serum sample 1, negative for TTV DNA by PCR, serum 1:100, peptide coated 10 μg/ml, OD over 0.500 positive): 0.10 OD; optical density (OD) at 405 nm, EIA reactivity of human serum sample 2 ([2]; serum sample 2, negative for TTV DNA by PCR, serum 1:100, peptide coated 10 μg/ml, OD over 0.500 positive): 0.11 OD; optical density (OD) at 405 nm, EIA reactivity of human serum sample 3 ([2]; serum sample 3, negative for TTV DNA by PCR, serum 1:100, peptide coated 10 μg/ml, OD over 0.500 positive): 0.11 OD; optical density (OD) at 405 nm, EIA reactivity of human serum sample 4 ([2]; serum sample 4, negative for TTV DNA by PCR, serum 1:100, peptide coated 10 μg/ml, OD over 0.500 positive): 0.10 OD; optical density (OD) at 405 nm, EIA reactivity of human serum sample 5 ([2]; serum sample 5, negative for TTV DNA by PCR, serum 1:100, peptide coated 10 μg/ml, OD over 0.500 positive): 0.08 OD; optical density (OD) at 405 nm, EIA reactivity of human serum sample 6 ([2]; serum sample 6, negative for TTV DNA by PCR, serum 1:100, peptide coated 10 μg/ml, OD over 0.500 positive): 0.12 OD; optical density (OD) at 405 nm, EIA reactivity of human serum sample 7 ([2]; serum sample 7, negative for TTV DNA by PCR, serum 1:100, peptide coated 10 μg/ml, OD over 0.500 positive): 0.09 OD; optical density (OD) at 405 nm, EIA reactivity of human serum sample 9 ([2]; serum sample 9, positive for TTV DNA by PCR, serum 1:100, peptide coated 10 μg/ml, OD over 0.500 positive): 0.08 OD; optical density (OD) at 405 nm, EIA reactivity of human serum sample 11 ([2]; serum sample 11, negative for TTV DNA by PCR, serum 1:100, peptide coated 10 μg/ml, OD over 0.500 positive): 0.14 OD; optical density (OD) at 405 nm, EIA reactivity of human serum sample 18 ([2]; serum sample 18, positive for TTV DNA by PCR, serum 1:100, peptide coated 10 μg/ml, OD over 0.500 positive): 0.08 OD; optical density (OD) at 405 nm, EIA reactivity of human serum sample 36 ([2]; serum sample 36, positive for TTV DNA by PCR, serum 1:100, peptide coated 10 μg/ml, OD over 0.500 positive): 0.08 OD; optical density (OD) at 405 nm, EIA reactivity of human serum sample 48 ([2]; serum sample 48, positive for TTV DNA by PCR, serum 1:100, peptide coated 10 μg/ml, OD over 0.500 positive): 0.08 OD; optical density (OD) at 405 nm, EIA reactivity of human serum sample 98 ([2]; serum sample 98, positive for TTV DNA by PCR, serum 1:100, peptide coated 10 μg/ml, OD over 0.500 positive): 0.08 OD; optical density (OD) at 405 nm, EIA reactivity of human serum sample 110 ([2]; serum sample 110, positive for TTV DNA by PCR, serum 1:100, peptide coated 10 μg/ml, OD over 0.500 positive): 0.09 OD; optical density (OD) at 405 nm, EIA reactivity of human serum sample 155 ([2]; serum sample 155, positive for TTV DNA by PCR, serum 1:100, peptide coated 10 μg/ml, OD over 0.500 positive): 0.14 OD; optical density (OD) at 405 nm, EIA reactivity of human serum sample 157 ([2]; serum sample 157, positive for TTV DNA by PCR, serum 1:100, peptide coated 10 μg/ml, OD over 0.500 positive): 0.13 OD
LIRSPFTDPQLLVHTDP (Peptide Immunogen) [compound 51, overlapping synthetic peptide of TTV ORF1]	0.899	1.697	0.903	0.06	0.09	0.08	0.10	0.12	0.24	0.13	0.07	0.13	0.07	0.08	0.08	0.11	0.09	0.24	0.78	human reactivity to peptide (reactive peptides within ORF1) ([2]; tested human sera, EIA): Reactive
